According to ChEMBL document CHEMBL4024706 (Eur J Med Chem, 2017):

Assays:
[1] = tested on: NB-4; experiment: Growth inhibition of human NB4 cells; type: functional; details: Homo sapiens, NB-4
[2] = target: Tyrosine-protein kinase ABL2 (Homo sapiens) (UniProt P42684); experiment: Inhibition of wild-type human ABL2 (A248 to G542 residues) expressed in bacterial expression system assessed as residual activity at 1 uM by Kinomescan method relative to control
[3] = target: Tyrosine-protein kinase Blk (Homo sapiens) (UniProt P51451); experiment: Inhibition of wild-type human partial length BLK (G211 to L503 residues) expressed in bacterial expression system assessed as residual activity at 1 uM by Kinomescan method relative to control
[4] = target: Calcium/calmodulin-dependent protein kinase type 1G (Homo sapiens) (UniProt Q96NX5); experiment: Inhibition of wild-type human partial length CAMK1G (M1 to A342 residues) expressed in bacterial expression system assessed as residual activity at 1 uM by Kinomescan method relative to control
[5] = target: Calcium/calmodulin-dependent protein kinase type II subunit beta (Homo sapiens) (UniProt Q13554); experiment: Inhibition of wild-type human partial length CAMK2B (M1 to Q380 residues) expressed in bacterial expression system assessed as residual activity at 1 uM by Kinomescan method relative to control
[6] = target: Cyclin-dependent kinase 11A (Homo sapiens) (UniProt Q9UQ88); experiment: Inhibition of wild-type human partial length CDC2L2 (D391 to K730 residues) expressed in bacterial expression system assessed as residual activity at 1 uM by Kinomescan method relative to control
[7] = target: Cyclin-dependent kinase-like 2 (Homo sapiens) (UniProt Q92772); experiment: Inhibition of wild-type human partial length CDKL2 (M1 to D327 residues) expressed in bacterial expression system assessed as residual activity at 1 uM by Kinomescan method relative to control
[8] = target: Cyclin-dependent kinase-like 5 (Homo sapiens) (UniProt O76039); experiment: Inhibition of wild-type human partial length CDKL5 (M1 to S337 residues) expressed in mammalian expression system assessed as residual activity at 1 uM by Kinomescan method relative to control
[9] = target: Epithelial discoidin domain-containing receptor 1 (Homo sapiens) (UniProt Q08345); experiment: Inhibition of wild-type human partial length DDR1 (R565 to V876 residues) expressed in bacterial expression system assessed as residual activity at 1 uM by Kinomescan method relative to control
Chain of Epithelial discoidin domain-containing receptor 1 (Homo sapiens) (Q08345 whole entry, the tested form may be a part): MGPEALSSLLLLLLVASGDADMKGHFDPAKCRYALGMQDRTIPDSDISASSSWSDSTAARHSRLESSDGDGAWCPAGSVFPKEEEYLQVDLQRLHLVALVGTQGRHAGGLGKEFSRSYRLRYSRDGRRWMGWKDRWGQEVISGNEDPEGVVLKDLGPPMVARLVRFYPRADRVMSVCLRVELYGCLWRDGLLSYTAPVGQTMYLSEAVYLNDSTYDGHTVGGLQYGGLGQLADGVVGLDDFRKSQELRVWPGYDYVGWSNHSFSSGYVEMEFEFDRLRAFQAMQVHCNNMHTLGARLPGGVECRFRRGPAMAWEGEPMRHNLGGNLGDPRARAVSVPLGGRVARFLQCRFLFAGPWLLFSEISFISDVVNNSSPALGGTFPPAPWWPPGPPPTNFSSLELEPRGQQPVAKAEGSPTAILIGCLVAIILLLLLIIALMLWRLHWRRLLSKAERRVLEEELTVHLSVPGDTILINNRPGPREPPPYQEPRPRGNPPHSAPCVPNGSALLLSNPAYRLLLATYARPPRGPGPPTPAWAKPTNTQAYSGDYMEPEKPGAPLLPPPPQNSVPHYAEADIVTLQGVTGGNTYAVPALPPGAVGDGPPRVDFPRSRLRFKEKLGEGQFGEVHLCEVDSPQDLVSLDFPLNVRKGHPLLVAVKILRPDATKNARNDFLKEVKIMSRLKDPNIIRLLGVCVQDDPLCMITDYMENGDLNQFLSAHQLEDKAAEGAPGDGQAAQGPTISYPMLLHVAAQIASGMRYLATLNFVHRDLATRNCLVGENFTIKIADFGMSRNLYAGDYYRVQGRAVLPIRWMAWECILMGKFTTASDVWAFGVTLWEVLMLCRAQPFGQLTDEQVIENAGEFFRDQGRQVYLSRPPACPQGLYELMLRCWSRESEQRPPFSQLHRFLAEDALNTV

[10] = tested on: Epidermal growth factor receptor (Homo sapiens), P00533 [L858R,T790M]; experiment: Inhibition of human partial length EGFR L858R/T790M double mutant (R669 to V1011 residues) expressed in mammalian expression system assessed as residual activity at 1 uM by Kinomescan method relative to control
[11] = target: Mitogen-activated protein kinase 7 (Homo sapiens) (UniProt Q13164); experiment: Inhibition of wild-type human partial length ERK5 (M1 to A409 residues) expressed in bacterial expression system assessed as residual activity at 1 uM by Kinomescan method relative to control
[12] = target: Mitogen-activated protein kinase kinase kinase 13 (Homo sapiens) (UniProt O43283); experiment: Inhibition of wild-type human full length LZK (M1 to W966 residues) expressed in mammalian expression system assessed as residual activity at 1 uM by Kinomescan method relative to control
[13] = target: MAP kinase-activated protein kinase 5 (Homo sapiens) (UniProt Q8IW41); experiment: Inhibition of wild-type human partial length MAPKAPK5 (M1 to D322 residues) expressed in mammalian expression system assessed as residual activity at 1 uM by Kinomescan method relative to control
[14] = target: Dual specificity mitogen-activated protein kinase kinase 2 (Homo sapiens) (UniProt P36507); experiment: Inhibition of wild-type human full length MEK2 (M1 to V400 residues) expressed in mammalian expression system assessed as residual activity at 1 uM by Kinomescan method relative to control
[15] = target: Dual specificity mitogen-activated protein kinase kinase 7 (Homo sapiens) (UniProt O14733); experiment: Inhibition of wild-type human full length MKK7 (M1 to R419 residues) expressed in mammalian expression system assessed as residual activity at 1 uM by Kinomescan method relative to control
[16] = target: Serine/threonine-protein kinase NIM1 (Homo sapiens) (UniProt Q8IY84); experiment: Inhibition of wild-type human partial length NIM1 (Q44 to N355 residues) expressed in mammalian expression system assessed as residual activity at 1 uM by Kinomescan method relative to control
Chain of Serine/threonine-protein kinase NIM1 (Homo sapiens) (Q8IY84 whole entry, the tested form may be a part): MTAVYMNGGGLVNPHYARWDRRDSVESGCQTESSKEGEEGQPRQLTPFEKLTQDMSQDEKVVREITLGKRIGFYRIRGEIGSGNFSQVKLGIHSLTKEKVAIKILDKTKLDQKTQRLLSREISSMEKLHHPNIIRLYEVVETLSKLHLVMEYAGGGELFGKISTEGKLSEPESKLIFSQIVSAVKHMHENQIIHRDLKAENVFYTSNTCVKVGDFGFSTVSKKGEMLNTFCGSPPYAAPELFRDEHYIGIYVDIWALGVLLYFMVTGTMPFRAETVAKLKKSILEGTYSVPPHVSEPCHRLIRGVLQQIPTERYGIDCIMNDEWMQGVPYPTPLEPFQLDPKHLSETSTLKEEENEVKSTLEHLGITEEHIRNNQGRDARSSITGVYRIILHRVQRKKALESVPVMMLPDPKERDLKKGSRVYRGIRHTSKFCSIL

[17] = target: Serine/threonine-protein kinase PAK 3 (Homo sapiens) (UniProt O75914); experiment: Inhibition of wild-type human full length PAK3 (M1 to R544 residues) expressed in bacterial expression system assessed as residual activity at 1 uM by Kinomescan method relative to control
[18] = target: Cyclin-dependent kinase 15 (Homo sapiens) (UniProt Q96Q40); experiment: Inhibition of wild-type human full length PFTAIRE2 (M1 to W384 residues) expressed in bacterial expression system assessed as residual activity at 1 uM by Kinomescan method relative to control
[19] = tested on: Phosphatidylinositol 4,5-bisphosphate 3-kinase catalytic subunit alpha isoform (Homo sapiens), P42336 [E545K]; experiment: Inhibition of human partial length PIK3CA E545K mutant (R108 to N1068 residues) expressed in mammalian expression system assessed as residual activity at 1 uM by Kinomescan method relative to control
[20] = target: Phosphatidylinositol 4-phosphate 5-kinase type-1 alpha (Homo sapiens) (UniProt Q99755); experiment: Inhibition of wild-type human full length PIP5K1A (M1 to H562 residues) expressed in bacterial expression system assessed as residual activity at 1 uM by Kinomescan method relative to control
[21] = target: Serine/threonine-protein kinase PLK3 (Homo sapiens) (UniProt Q9H4B4); experiment: Inhibition of wild-type human partial length PLK3 (A42 to L334 residues) expressed in mammalian expression system assessed as residual activity at 1 uM by Kinomescan method relative to control
Chain of Serine/threonine-protein kinase PLK3 (Homo sapiens) (Q9H4B4 whole entry, looked up, the tested form may be a part): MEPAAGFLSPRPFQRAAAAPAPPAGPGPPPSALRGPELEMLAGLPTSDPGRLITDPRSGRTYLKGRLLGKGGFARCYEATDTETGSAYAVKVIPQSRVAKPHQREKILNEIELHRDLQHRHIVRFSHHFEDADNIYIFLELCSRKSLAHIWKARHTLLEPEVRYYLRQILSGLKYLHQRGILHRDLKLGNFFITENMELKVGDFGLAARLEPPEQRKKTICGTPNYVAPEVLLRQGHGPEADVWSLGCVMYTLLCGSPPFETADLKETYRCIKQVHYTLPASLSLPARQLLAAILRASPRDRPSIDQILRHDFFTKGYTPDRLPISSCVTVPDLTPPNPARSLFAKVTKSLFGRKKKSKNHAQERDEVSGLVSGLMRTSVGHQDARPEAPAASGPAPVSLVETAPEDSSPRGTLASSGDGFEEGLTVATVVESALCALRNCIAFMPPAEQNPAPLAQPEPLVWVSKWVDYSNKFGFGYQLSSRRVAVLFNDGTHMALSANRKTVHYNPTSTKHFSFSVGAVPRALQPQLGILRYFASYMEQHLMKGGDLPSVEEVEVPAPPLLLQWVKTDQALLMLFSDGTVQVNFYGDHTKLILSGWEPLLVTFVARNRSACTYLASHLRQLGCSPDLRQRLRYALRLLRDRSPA

[22] = target: Protein-tyrosine kinase 2-beta (Homo sapiens) (UniProt Q14289); experiment: Inhibition of wild-type human full length PYK2 (M1 to E967 residues) expressed in bacterial expression system assessed as residual activity at 1 uM by Kinomescan method relative to control
[23] = target: Serine/threonine-protein kinase 36 (Homo sapiens) (UniProt Q9NRP7); experiment: Inhibition of wild-type human partial length STK36 (M1 to T271 residues) expressed in bacterial expression system assessed as residual activity at 1 uM by Kinomescan method relative to control
[24] = target: Wee1-like protein kinase 2 (Homo sapiens) (UniProt P0C1S8); experiment: Inhibition of wild-type human partial length WEE2 (M204 to K492 residues) expressed in bacterial expression system assessed as residual activity at 1 uM by Kinomescan method relative to control
Chain of Wee1-like protein kinase 2 (Homo sapiens) (P0C1S8 whole entry, looked up, the tested form may be a part): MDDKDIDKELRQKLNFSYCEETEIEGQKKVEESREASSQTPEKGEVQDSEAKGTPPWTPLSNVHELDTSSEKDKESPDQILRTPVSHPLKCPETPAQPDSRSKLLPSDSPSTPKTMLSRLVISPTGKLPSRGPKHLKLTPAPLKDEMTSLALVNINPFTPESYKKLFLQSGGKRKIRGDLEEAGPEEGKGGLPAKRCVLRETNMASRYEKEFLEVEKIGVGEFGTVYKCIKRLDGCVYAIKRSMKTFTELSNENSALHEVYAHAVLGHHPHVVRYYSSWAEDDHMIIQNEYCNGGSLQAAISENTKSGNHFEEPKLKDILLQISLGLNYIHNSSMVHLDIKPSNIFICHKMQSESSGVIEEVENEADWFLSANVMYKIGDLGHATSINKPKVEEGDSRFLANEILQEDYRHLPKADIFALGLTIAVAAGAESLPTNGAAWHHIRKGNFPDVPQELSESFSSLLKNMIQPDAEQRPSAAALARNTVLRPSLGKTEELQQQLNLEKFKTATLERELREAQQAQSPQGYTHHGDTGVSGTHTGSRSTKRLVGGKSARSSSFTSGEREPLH

[25] = target: Serine/threonine-protein kinase WNK2 (Homo sapiens) (UniProt Q9Y3S1); experiment: Inhibition of wild-type human partial length WNK2 (V47 to D482 residues) expressed in mammalian expression system assessed as residual activity at 1 uM by Kinomescan method relative to control
Chain of Serine/threonine-protein kinase WNK2 (Homo sapiens) (Q9Y3S1 whole entry, the tested form may be a part): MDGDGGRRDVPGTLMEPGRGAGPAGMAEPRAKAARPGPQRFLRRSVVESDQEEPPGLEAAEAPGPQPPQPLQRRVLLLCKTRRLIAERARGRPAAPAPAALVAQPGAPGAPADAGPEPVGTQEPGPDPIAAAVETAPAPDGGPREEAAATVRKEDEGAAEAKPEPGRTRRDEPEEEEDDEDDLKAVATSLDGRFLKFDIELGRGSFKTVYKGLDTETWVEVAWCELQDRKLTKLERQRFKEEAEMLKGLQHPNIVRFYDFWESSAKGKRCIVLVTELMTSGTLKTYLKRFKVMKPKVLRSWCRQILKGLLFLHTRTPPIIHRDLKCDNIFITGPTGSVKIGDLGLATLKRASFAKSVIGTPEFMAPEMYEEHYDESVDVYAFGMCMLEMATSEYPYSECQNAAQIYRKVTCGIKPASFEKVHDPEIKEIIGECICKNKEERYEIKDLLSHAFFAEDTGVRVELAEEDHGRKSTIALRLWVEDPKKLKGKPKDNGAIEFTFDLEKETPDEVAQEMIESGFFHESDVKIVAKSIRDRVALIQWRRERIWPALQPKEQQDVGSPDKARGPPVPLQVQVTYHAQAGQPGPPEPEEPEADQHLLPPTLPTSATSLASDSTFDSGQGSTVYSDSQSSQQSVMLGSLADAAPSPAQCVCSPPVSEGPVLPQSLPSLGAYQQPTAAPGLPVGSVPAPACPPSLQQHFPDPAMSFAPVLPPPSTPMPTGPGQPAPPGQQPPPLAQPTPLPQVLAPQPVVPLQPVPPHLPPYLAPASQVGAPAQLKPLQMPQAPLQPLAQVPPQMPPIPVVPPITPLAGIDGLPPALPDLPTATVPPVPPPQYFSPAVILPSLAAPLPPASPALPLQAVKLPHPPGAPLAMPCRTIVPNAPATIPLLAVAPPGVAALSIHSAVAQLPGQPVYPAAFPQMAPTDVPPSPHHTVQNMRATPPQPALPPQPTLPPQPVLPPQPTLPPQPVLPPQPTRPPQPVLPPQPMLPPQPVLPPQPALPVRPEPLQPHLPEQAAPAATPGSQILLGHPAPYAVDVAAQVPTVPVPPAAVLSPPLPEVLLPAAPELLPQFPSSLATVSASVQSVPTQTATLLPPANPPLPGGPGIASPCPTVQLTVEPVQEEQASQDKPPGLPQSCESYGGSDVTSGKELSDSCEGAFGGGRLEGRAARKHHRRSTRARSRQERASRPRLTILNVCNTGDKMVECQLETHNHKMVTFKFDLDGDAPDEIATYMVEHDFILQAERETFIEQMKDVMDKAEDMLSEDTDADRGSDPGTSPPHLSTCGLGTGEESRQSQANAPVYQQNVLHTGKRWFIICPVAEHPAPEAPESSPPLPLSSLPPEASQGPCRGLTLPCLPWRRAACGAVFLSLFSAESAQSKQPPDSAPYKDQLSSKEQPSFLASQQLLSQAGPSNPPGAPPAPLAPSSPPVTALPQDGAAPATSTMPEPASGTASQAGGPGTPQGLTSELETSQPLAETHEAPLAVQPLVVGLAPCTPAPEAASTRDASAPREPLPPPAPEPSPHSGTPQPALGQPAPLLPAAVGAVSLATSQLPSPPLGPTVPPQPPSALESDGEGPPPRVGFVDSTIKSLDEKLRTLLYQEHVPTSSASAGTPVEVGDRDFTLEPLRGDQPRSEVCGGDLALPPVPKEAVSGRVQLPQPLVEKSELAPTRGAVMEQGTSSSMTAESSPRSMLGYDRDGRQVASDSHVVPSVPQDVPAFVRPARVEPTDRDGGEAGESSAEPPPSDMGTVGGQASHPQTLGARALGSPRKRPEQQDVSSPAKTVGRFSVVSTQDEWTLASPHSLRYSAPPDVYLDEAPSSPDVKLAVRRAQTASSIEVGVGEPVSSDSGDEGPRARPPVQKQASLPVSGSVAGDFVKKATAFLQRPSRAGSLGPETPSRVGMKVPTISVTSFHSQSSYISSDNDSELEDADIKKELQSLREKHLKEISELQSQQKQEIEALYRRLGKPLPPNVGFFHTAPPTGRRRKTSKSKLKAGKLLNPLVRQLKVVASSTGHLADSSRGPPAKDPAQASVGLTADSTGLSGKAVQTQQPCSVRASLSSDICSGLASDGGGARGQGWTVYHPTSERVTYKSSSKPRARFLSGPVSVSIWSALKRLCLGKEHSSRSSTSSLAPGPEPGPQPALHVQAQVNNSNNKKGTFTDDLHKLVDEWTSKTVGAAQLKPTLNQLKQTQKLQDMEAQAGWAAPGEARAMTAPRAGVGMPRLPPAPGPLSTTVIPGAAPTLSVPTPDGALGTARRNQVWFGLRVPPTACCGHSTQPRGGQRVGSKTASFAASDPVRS

[26] = target: Tyrosine-protein kinase Yes (Homo sapiens) (UniProt P07947); experiment: Inhibition of wild-type human partial length YES (T257 to L543 residues) expressed in bacterial expression system assessed as residual activity at 1 uM by Kinomescan method relative to control

C=CC(=O)Nc1cc(Nc2cc(-c3cccc(NC(=O)c4ccc(C(C)(C)C)cc4)c3C)cn(C)c2=O)ccc1C(=O)N1CCOCC1 showed a GI50 [1] of 6.6 µM, an Activity [2] of 100% and an Activity [3] of 82%. The Activity [4] was 100%, the Activity [5] was 100% and the Activity [6] was 94%. It also gave an Activity [7] of 100%, an Activity [8] of 100% and an Activity [9] of 100%. For the same compound, the Activity [10] was 89%, the Activity [11] was 99% and the Activity [12] was 98%. For the same compound, the Activity [13] was 100%, the Activity [14] was 100% and the Activity [15] was 100%. For the same compound, the Activity [16] was 100%, the Activity [17] was 71% and the Activity [18] was 97%. The Activity [19] was 100%, the Activity [20] was 95% and the Activity [21] was 95%. The Activity [22] was 100%, the Activity [23] was 93% and the Activity [24] was 100%. The Activity [25] was 99% and the Activity [26] was 93%.
